Source: US7015248B2, “Use of abietic acid and derivatives thereof for inhibiting cancer” (Xiamen Ever-Health Bio-Tech. Co. Ltd, priority 2002, dated 2006)
Where two headings read alike, the source gives them in different places.

Key:
[1] = test system: HeLa cells, a human epithelioid cervical carcinoma cell line; assay: video-enhanced DIC microscopy of cell morphology, HeLa cells; assay type: cell-based
Method: (§1) For evaluation of the biological activities of abietic acid on mammalian cells, a time-lapsed recording using video-enhanced DIC microscopy on a variety of cultured cells, including cancerous and non-cancerous cell lines, before and after addition of abietic acid, was performed.
(§2) Abietic acid may be extracted by any conventional methods. In one embodiment of the invention, abietic acid was extracted according to the method described in Luong J H et al., 1999, Electrophoresis. 20(7): 1546–54, and an abietic acid stock solution at a concentration of 150 μg/ml was prepared subsequently.
HeLa cells, a human epithelioid cervical carcinoma cell line, were cultured in a standard medium under standard conditions. The HeLa cells were trypsinized and a cell suspension at a concentration of 10^5 cells per milliliter of medium was prepared therefrom. The cell suspension was poured into a 22×22 mm coverglass and treated without abietic acid or with the abietic acid stock solution to achieve a final concentration of 0.3 μg/ml (1/500 dilution), 0.15 μg/ml (1/1000 dilution) or 0.03 μg/ml (1/5000 dilution), respectively.
(§3) It has been known that the morphology of a cell reflects the healthy condition of the cell. For instance, once a cell, which is normally attached to a substrate with a flat morphology, swells and becomes round in morphology, it means that the condition of the cell turns disadvantageous and the cell may stop the growth and be dead soon.

[2] = test system: HepG2 cells, a human heptocellular carcinoma cell line; assay: DIC microscopy of cell morphology, HepG2 cells; assay type: cell-based; details: for morphology of HepG2 cells: 24-hour incubation
Method: as §1, §2
HepG2 cells, a human heptocellular carcinoma cell line, were cultured in a standard medium under standard conditions. The HepG2 cells were trypsinized and a cell suspension at a concentration of 10^5 cells per milliliter of medium was prepared therefrom. The cell suspension was poured into a 22×22 mm coverglass and treated without abietic acid or with 0.3, 0.15 or 0.03 μg/ml abietic acid, respectively, as described above.
as §3

[3] = test system: Detroit 551 normal fibroblast cells; assay: DIC microscopy of cell morphology, Detroit 551 normal fibroblast cells; assay type: cell-based
Method: as §1, §2
Detroit 551 normal fibroblast cells were treated without abietic acid or with abietic acid, as described above. The morphology of the normal fibroblast cells was affected when treated with 0.15 and 0.3 μg/ml abietic acid.
as §3

[4] = test system: MCF-7 breast cancer cell line; assay type: in vivo; details: 0.02667 mg per gram body weight by gastric pipe per two days; for Average maximum diameter: 8 mice
Method: Eighty Balb/c-nu/nu female nude mice, supplied by National Laboratory Animal Center in the ROC (Taiwan), four-week old, weight about 18 to 20 g, free of pinworm infection, were housed in the laboratories of the National Yang-Ming University, Taipei, ROC (Taiwan). Clear water and feeds were normally provided. The litters were replaced with new ones per three days. On the other hand, a MCF-7 breast cancer cell line was cultured under standard conditions.
Since the nude mice were five weeks old, the nude mice were intramuscularly injected with 1.7 mg of estradiol valerate at their leg regions. On the other hand, the MCF-7 cells were treated with estradiol for 24 hours, and then trypsinized, centrifuged and recovered in the Minimum Essential Medium (MEM) medium to achieve a concentration of 2×10^7 cell/ml.
After two days following the intramuscular injection of estradiol valerate, the nude mice were subcutaneously injected with 500 μl of the estradiol-treated MCF-7 cells (2×10^7 cell/ml) at their back regions. Once injection, the back regions swelled but became even later.
After three weeks following the injection of the MCF-7 cells, a subcutaneous tumor of 2 mm in a maximum diameter was developed at the backs of the nude mice.
These tumor containing nude mice were divided into two groups, each including 8 mice. One of the two groups were fed normally as a control group. The mice of the other group were fed with abietic acid at a dosage of 0.02667 mg per gram of the body weight of the nude mice by a gastric pipe per two days for a period of more than 12 weeks (experimental group).
The maximum diameter of the tumor on the back of each nude mouse of the control group and the experimental group were recorded, as shown in Table 1 and FIG. 3.

[5] = MTT (mitochondrial activity) assay of cell proliferation; assay type: cell-based
Source text: A MTT (mitochondrial activity) assay was used to determine a cell proliferation.

[6] = test system: plasma membrane of the cell; assay: electrophysiological experiments and dye-permeability assays; assay type: cell-based
Method: In addition, to further study the mechanisms underlying the swelling phenomenon of a cell, electrophysiological experiments and dye-permeability assays were conducted to measure the permeability of a plasma membrane of the cell.

[7] = test system: MCF-7 breast cancer cell line; assay: combination with taxol against MCF-7 cells; assay type: cell-based; details: in combination with taxol
[8] = test system: Hep-G2 human hepatocellular carcinoma cell line; assay: combination with mitomycin C on Hep-G2 cells; assay type: cell-based; details: in combination with mitomycin C
lipoxygenase pathway = details: Ulusu et al., 2002; read-out: IC50 of inhibition of lipoxygenase pathway; cited from earlier work
prostaglandin E2 = details: lipopolysaccharide-treated macrophages; Fernandez et al., 2001; cited from earlier work
[9] = test system: breast cancer cells such as MCF-7 or T-47D; details: Mellanen et al., 1996; cited from earlier work

CC(C)C1=CC2=CC[C@@H]3[C@](C)(CCC[C@@]3(C)C(=O)O)[C@H]2CC1 [abietic acid]
morphology of HeLa cells ([1]; 0.03, 0.15 and 0.3 μg/ml, 24-hour incubation): serious swelling phenomenon | concentration effective to induce a swelling phenomenon ([1]; HeLa cell line): 0.03 µg/mL | growth of cancer cells after swelling ([1]; HeLa cells, about 24 hours exposure, relatively low concentration): inhibition of the growth and the death of the cancer cells | morphology of HepG2 cells ([2]; 0.03 μg/ml): different morphology | morphology of HepG2 cells ([2]; 0.15 and 0.3 μg/ml): swelled | concentration effective to induce a swelling phenomenon ([2]; HepG2 cell line): 0.03 µg/mL | growth of cancer cells after swelling ([2]; HepG2 cells, about 24 hours exposure, relatively low concentration): inhibition of the growth and the death of the cancer cells | morphology of normal fibroblast cells ([3]; 0.03 μg/ml): normal and flat morphology | morphology of normal fibroblast cells ([3]; 0.15 and 0.3 μg/ml): affected | concentration that affects the morphology of a normal fibroblast cell ([3]; Detroit 551): higher than 0.15 μg/ml | morphology and growth of normal fibroblast cells ([3]; about 24 hours exposure at the same concentration): remained flat in morphology and grew well | average maximum diameter of the tumor in comparison with mice without treatment ([4]; 12 weeks): significantly reduced | survival of mice to the end of the period ([4]; more than 12 weeks): all the mice were alive | Average maximum diameter ([4]; week 1): 0.587 cm | Average maximum diameter ([4]; week 3): 0.675 cm | Average maximum diameter ([4]; week 6): 0.700 cm | Average maximum diameter ([4]; week 9): 0.787 cm | Average maximum diameter ([4]; week 12): 0.800 cm | cell proliferation / mitosis ([5]; abietic acid by itself): inhibit cell mitosis in a dose-dependent manner | effect on killing effects of anti-cancer drugs ([5]; in combination with a variety of anti-cancer drugs): significantly enhanced the killing effects of a variety of anti-cancer drugs | permeability of a plasma membrane [6]: direct effect on influx and efflux of chemicals across the cell membrane | effect on inhibitory activity of taxol [7]: enhance the inhibitory activity of taxol | effect on efficacy of mitomycin C on growth [8]: accelerate the efficacy of mitomycin C | IC50 (lipoxygenase pathway): 29.5 ± 1.29 µM | production of prostaglandin E2 (prostaglandin E2): inhibit the production of the inflammatory mediator, prostaglandin E2 | estrogenic effect [9]: estrogenic
